According to US20060045910A1, “Preserved fusogenic vesicles” (priority 2004, published 2006):

Tested on: rat cardiomyocyte cells
Experiment: Uptake of ATP by rat cardiomyocyte cells (FIG. 5)
Type: cell-based
Excerpt: While not wishing to be bound by any specific theory, it is currently believed that the dehydration of the vesicles that occurs during freeze-drying causes more ATP to enter the fusogenic vesicles. In this manner, the preserved and re-hydrated fusogenic vesicles may contain a higher concentration of ATP than their unpreserved counterparts.

## Nc1ncnc2c1ncn2[C@@H]1O[C@H](COP(=O)(O)OP(=O)(O)OP(=O)(O)O)[C@@H](O)[C@H]1O [unencapsulated ATP, adenosine triphosphate]
  uptake of ATP by cells: barely absorbed
